Measured values: ChEMBL document CHEMBL1944551, “An integrated computational workflow for efficient and quantitative modeling of renin inhibitors” (Bioorg Med Chem, 2012)

Experiments:
physchem = conditions: octanol/buffer
Renin = target: T1, Renin (Homo sapiens, UniProt P00797)
T1 sequence (P00797 whole entry): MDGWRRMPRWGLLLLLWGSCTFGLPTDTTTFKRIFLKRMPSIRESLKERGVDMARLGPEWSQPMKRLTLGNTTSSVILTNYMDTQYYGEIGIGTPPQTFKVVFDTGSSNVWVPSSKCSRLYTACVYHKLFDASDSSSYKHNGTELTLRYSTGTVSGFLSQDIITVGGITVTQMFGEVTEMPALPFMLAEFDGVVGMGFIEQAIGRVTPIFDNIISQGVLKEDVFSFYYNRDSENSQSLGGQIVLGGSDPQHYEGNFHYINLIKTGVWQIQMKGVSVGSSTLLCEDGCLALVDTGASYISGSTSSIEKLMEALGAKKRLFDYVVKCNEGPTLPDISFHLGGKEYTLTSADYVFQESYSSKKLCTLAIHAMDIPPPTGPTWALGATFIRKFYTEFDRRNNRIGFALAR
Description: Inhibition of human recombinant renin assessed as decrease in release of AngI from tetradecapeptide after 3 hrs by EIA

Compound	logP (physchem)	IC50 (Renin)
O=C(c1c(Oc2ccccc2)n(-c2ccccc2)c2cc(Cl)ccc12)N1CCNCC1	5.71	537 nM
Cc1c(F)cccc1Cc1cc2c(cc1O)c(C(=O)N1CCNCC1)c(Cc1cccc(F)c1C)n2-c1ccccc1	7.78	427 nM
Cc1ccc(F)cc1Oc1c(C(=O)N2CCNCC2)c2ccc(O)cc2n1-c1ccc(F)cc1	5.45	15.8 nM
Cc1ccc(F)cc1Oc1c(C(=O)N2CCNCC2)c2ccccc2n1[C@H]1C=CCCC1	5.3	6.46 nM
Cc1cc(Cl)c(OCCOc2ccc(N3C(=O)CNC[C@@H]3C(=O)N(Cc3cccc(C)c3C)C3CC3)cc2)cc1C	5.54	7.76 nM
Cc1cccc(CN(C(=O)[C@H]2CNCC(=O)N2c2ccc(OCCOc3c(Cl)cc(F)cc3Cl)cc2)C2CC2)c1C	5.69	10.2 nM
